What was measured:
[1] = system: serum cholesterol; experiment: Cholesterol lowering in hamsters fed LCP, Lescol or the combination, bled after two weeks; type: in vivo, Golden Syrian hamsters; settings: diet with 2% LCP and/or 0.01% Lescol
Method: A study was performed to compare the effects of cholesterol reduction using the 2% LCP alone, 0.01% Lescol (a HMG CoA reductase inhibitor) alone, and a combination of 0.01% Lescol mixed with the phospholipids and extruded to create the LCP. The dosage was administered to Golden Syrian hamsters which were bled after two weeks to determine the cholesterol lowering effects.

[2] = system: LDL cholesterol; settings: 60 hypercholesterolemic patients; Gurevich et al.; cited from earlier work

SMILES	HDL [1]	Non HDL [1]	Total Cholesterol [1]	Lovastatin dose required to reduce LDL cholesterol level to a value of 130 [2] [mg/day]
CC(C)n1c(/C=C/[C@@H](O)C[C@@H](O)CC(=O)O)c(-c2ccc(F)cc2)c2ccccc21 (racemic) [Lescol]	1.77 ± 0.16	1.61 ± 0.63	3.37 ± 0.67	
CC[C@H](C)C(=O)O[C@H]1C[C@@H](C)C=C2C=C[C@H](C)[C@H](CC[C@@H]3C[C@@H](O)CC(=O)O3)[C@H]21 [Lovastatin]				40

Source: patent US6312703A, “Compressed lecithin preparations” (Lecigel, LLC, priority 1999, dated 2001)
